The source of these data is the supplement of paper PMC10307832.

What all share (test): relative viability (nuclei count vs DMSO), 5 days (fraction); higher = more cells survive
Compound in the test “Fedratinib + Bortezomib”: Cc1cnc(Nc2ccc(OCCN3CCCC3)cc2)nc1Nc1cccc(S(=O)(=O)NC(C)(C)C)c1 [Fedratinib] + CC(C)C[C@H](NC(=O)[C@H](Cc1ccccc1)NC(=O)c1cnccn1)B(O)O [Bortezomib] (partner 0.002 µM)
Put shortly:
(§1)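 Relative viability was taken as the ratio of nuclei in treated wells to nuclei in vehicle wells. Lung cancer cell lines in 1536-well plates received compounds by pin tool one day after seeding, either one drug alone or a fixed anchor-drug dose plus five library-drug doses (not always all listed) in √10 steps. Nuclei were counted on 4× images after 5 days of treatment, and values are medians of duplicate plates.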

Compound in the next test: Cc1cnc(Nc2ccc(OCCN3CCCC3)cc2)nc1Nc1cccc(S(=O)(=O)NC(C)(C)C)c1 [Fedratinib]
Put shortly:
(§2)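 Lung cancer cell lines in 1536-well plates were kept overnight at 37 °C, then pinned with five library-drug doses (not always all listed) spaced by √10 on vehicle-anchored plates. After 5 days without medium change, cells were fixed, permeabilised and Hoechst-stained in one step, imaged at 4×, and nuclei were counted with MetaXpress. Viability is treated-well nuclei divided by vehicle-well nuclei, taken as the median over plates. Plates passed only with control CV below 25% and at least one doubling.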

Compound in a further test: COC1=CC=C(C=C1)COC2=C(C=C(C=C2)CC3=CN=C(N=C3N)N)OC [GW-2580]
In a few lines: as §2

Compound in the test “Fedratinib + Navitoclax”: Cc1cnc(Nc2ccc(OCCN3CCCC3)cc2)nc1Nc1cccc(S(=O)(=O)NC(C)(C)C)c1 [Fedratinib] + CC1(C)CCC(c2ccc(Cl)cc2)=C(CN2CCN(c3ccc(C(=O)NS(=O)(=O)c4ccc(N[C@H](CCN5CCOCC5)CSc5ccccc5)c(S(=O)(=O)C(F)(F)F)c4)cc3)CC2)C1 [Navitoclax] (partner 0.5 µM)
In a few lines: as §1

Compound in the test “GW-2580 + Trametinib”: COC1=CC=C(C=C1)COC2=C(C=C(C=C2)CC3=CN=C(N=C3N)N)OC [GW-2580] + CC(=O)Nc1cccc(-n2c(=O)n(C3CC3)c(=O)c3c(Nc4ccc(I)cc4F)n(C)c(=O)c(C)c32)c1 [Trametinib] (partner 0.02 µM)
In a few lines:
as §1

Compound in the test “Fedratinib + AZD7762”: Cc1cnc(Nc2ccc(OCCN3CCCC3)cc2)nc1Nc1cccc(S(=O)(=O)NC(C)(C)C)c1 [Fedratinib] + NC(=O)Nc1cc(-c2cccc(F)c2)sc1C(=O)N[C@H]1CCCNC1 [AZD7762] (partner 0.2 µM)
Put shortly:
as §1

For NCI-H1563, the relative viability amounted to 0.699 in the test with Fedratinib + Bortezomib (first compound 0.1 µM); 0.939 with Fedratinib + Bortezomib (first compound 0.3162 µM); 0.631 with Fedratinib + Bortezomib (first compound 1 µM); 0.949 with Fedratinib (0.1 µM); 1.04 in the test with Fedratinib (0.3162 µM); 0.933 with Fedratinib (1 µM). The relative viability in the test with GW-2580 (0.08 µM) stood at 0.982; in the test with GW-2580 (0.8 µM), 0.966; in the test with GW-2580 (2.53 µM) it was 0.876; with GW-2580 (8 µM), 0.912.

In the case of A549, the relative viability came to 1.55 with Fedratinib + Navitoclax (first compound 0.1 µM); 1.2 with Fedratinib + Navitoclax (first compound 0.3162 µM); 1.1 in the test with Fedratinib + Navitoclax (first compound 1 µM); 0.998 with Fedratinib (0.1 µM); 0.937 with Fedratinib (0.3162 µM); 0.958 in the test with Fedratinib (1 µM). The relative viability in the test with GW-2580 (0.08 µM) was determined as 1.01; in the test with GW-2580 (0.8 µM), 1.12; in the test with GW-2580 (2.53 µM) it was 0.944; with GW-2580 (8 µM) it was 0.932.

On to NCI-H2342, for which the relative viability in the test with GW-2580 + Trametinib (first compound 0.08 µM) is 0.805; with GW-2580 + Trametinib (first compound 0.8 µM), 0.889; with GW-2580 + Trametinib (first compound 2.53 µM), 0.783; in the test with GW-2580 + Trametinib (first compound 8 µM), 0.83; in the test with Fedratinib + AZD7762 (first compound 0.1 µM), 0.443; with Fedratinib + AZD7762 (first compound 0.3162 µM) it was 0.528. The relative viability in the test with Fedratinib + AZD7762 (first compound 1 µM) was determined as 0.56; with Fedratinib (0.1 µM) it was 1.08; with Fedratinib (0.3162 µM), 1.06; in the test with Fedratinib (1 µM) it was 0.994; with GW-2580 (0.08 µM), 0.921; with GW-2580 (0.8 µM), 1.05. In addition, the relative viability with GW-2580 (2.53 µM) amounted to 0.775; with GW-2580 (8 µM), 0.97.

As to NCI-H2170, the relative viability with Fedratinib + Navitoclax (first compound 0.1 µM) came out at 0.626; in the test with Fedratinib + Navitoclax (first compound 0.3162 µM) it was 0.653; with Fedratinib + Navitoclax (first compound 1 µM), 0.429; with GW-2580 + Trametinib (first compound 0.08 µM), 0.994; with GW-2580 + Trametinib (first compound 0.8 µM), 1.01; in the test with GW-2580 + Trametinib (first compound 2.53 µM) it was 0.924. Further, the relative viability in the test with GW-2580 + Trametinib (first compound 8 µM) is 0.857; with Fedratinib + AZD7762 (first compound 0.1 µM) it was 0.77; in the test with Fedratinib + AZD7762 (first compound 0.3162 µM), 0.821; with Fedratinib + AZD7762 (first compound 1 µM), 0.644; with Fedratinib (0.1 µM) it was 1.05; in the test with Fedratinib (0.3162 µM) it was 1.01. Moreover, the relative viability was determined as 0.9 in the test with Fedratinib (1 µM); 1.02 with GW-2580 (0.08 µM); 1.02 with GW-2580 (0.8 µM); 0.948 with GW-2580 (2.53 µM); 0.972 in the test with GW-2580 (8 µM).

As to NCI-H1623, the relative viability in the test with Fedratinib (0.1 µM) was 1.04; with Fedratinib (0.3162 µM) it was 0.987; with Fedratinib (1 µM), 0.935; with GW-2580 (0.08 µM), 0.947; with GW-2580 (0.8 µM), 0.998; in the test with GW-2580 (2.53 µM), 0.828. In the test with GW-2580 (8 µM), the relative viability came to 0.96.

In the case of NCI-H522, the relative viability turned out to be 0.804 with GW-2580 + Trametinib (first compound 0.08 µM); 0.673 with GW-2580 + Trametinib (first compound 0.8 µM); 0.656 with GW-2580 + Trametinib (first compound 2.53 µM); 0.753 in the test with GW-2580 + Trametinib (first compound 8 µM); 0.829 in the test with Fedratinib + AZD7762 (first compound 0.1 µM); 0.851 in the test with Fedratinib + AZD7762 (first compound 0.3162 µM). For the same cell line, the relative viability was determined as 0.77 in the test with Fedratinib + AZD7762 (first compound 1 µM); 0.971 in the test with Fedratinib (0.1 µM); 1.16 in the test with Fedratinib (0.3162 µM); 0.758 with Fedratinib (1 µM); 0.969 in the test with GW-2580 (0.08 µM); 0.9 with GW-2580 (0.8 µM). The figures for the relative viability with GW-2580 (2.53 µM) and in the test with GW-2580 (8 µM) were 0.957 and 0.996, respectively.

Take NCI-H1395: the relative viability in the test with Fedratinib + Navitoclax (first compound 0.1 µM) worked out at 1.3; with Fedratinib + Navitoclax (first compound 0.3162 µM), 1.13; in the test with Fedratinib + Navitoclax (first compound 1 µM), 0.962; in the test with GW-2580 + Trametinib (first compound 0.08 µM) it was 0.975; with GW-2580 + Trametinib (first compound 0.8 µM), 0.969; with GW-2580 + Trametinib (first compound 2.53 µM), 0.988. Also, the relative viability with GW-2580 + Trametinib (first compound 8 µM) is 1.08; with Fedratinib + AZD7762 (first compound 0.1 µM) it was 0.385; with Fedratinib + AZD7762 (first compound 0.3162 µM) it was 0.402; with Fedratinib + AZD7762 (first compound 1 µM) it was 0.377; in the test with Fedratinib (0.1 µM), 0.784; in the test with Fedratinib (0.3162 µM), 0.955. Further, the relative viability was determined as 0.7 in the test with Fedratinib (1 µM); 0.866 with GW-2580 (0.08 µM); 0.979 with GW-2580 (0.8 µM); 0.877 with GW-2580 (2.53 µM); 0.935 in the test with GW-2580 (8 µM).

For the cell line IA-LM, the relative viability stood at 0.884 with Fedratinib + Navitoclax (first compound 0.1 µM); 0.721 with Fedratinib + Navitoclax (first compound 0.3162 µM); 0.972 with Fedratinib + Navitoclax (first compound 1 µM); 0.747 with Fedratinib + Bortezomib (first compound 0.1 µM); 0.784 with Fedratinib + Bortezomib (first compound 0.3162 µM); 0.642 with Fedratinib + Bortezomib (first compound 1 µM). The relative viability in the test with Fedratinib (0.1 µM) worked out at 1.01; with Fedratinib (0.3162 µM), 0.87; with Fedratinib (1 µM), 0.931; in the test with GW-2580 (0.08 µM) it was 0.849; with GW-2580 (0.8 µM) it was 1.1; with GW-2580 (2.53 µM), 0.913. For the same cell line, the relative viability with GW-2580 (8 µM) was 0.936.

Take NCI-H358: the relative viability worked out at 0.149 with GW-2580 + Trametinib (first compound 0.08 µM); 0.139 in the test with GW-2580 + Trametinib (first compound 0.8 µM); 0.131 with GW-2580 + Trametinib (first compound 2.53 µM); 0.132 with GW-2580 + Trametinib (first compound 8 µM); 0.502 with Fedratinib + AZD7762 (first compound 0.1 µM); 0.49 with Fedratinib + AZD7762 (first compound 0.3162 µM). The relative viability is 0.438 with Fedratinib + AZD7762 (first compound 1 µM); 0.999 in the test with Fedratinib (0.1 µM); 0.911 with Fedratinib (0.3162 µM); 0.884 with Fedratinib (1 µM); 0.965 with GW-2580 (0.08 µM); 1.03 in the test with GW-2580 (0.8 µM). The figures for the relative viability with GW-2580 (2.53 µM) and in the test with GW-2580 (8 µM) were 0.874 and 0.789, respectively.

With EBC-1, the relative viability was found to be 0.28 with Fedratinib + Navitoclax (first compound 0.1 µM); 0.282 with Fedratinib + Navitoclax (first compound 0.3162 µM); 0.155 with Fedratinib + Navitoclax (first compound 1 µM); 0.478 with Fedratinib + Bortezomib (first compound 0.1 µM); 0.501 in the test with Fedratinib + Bortezomib (first compound 0.3162 µM); 0.39 in the test with Fedratinib + Bortezomib (first compound 1 µM). For the same cell line, the relative viability with Fedratinib (0.1 µM) is 0.893; in the test with Fedratinib (0.3162 µM) it was 0.988; with Fedratinib (1 µM), 0.878; with GW-2580 (0.08 µM), 1.07; with GW-2580 (0.8 µM), 1.17; with GW-2580 (2.53 µM), 0.889. For the same cell line, in the test with GW-2580 (8 µM), the relative viability came to 0.949.
